Patent US10980777B2, “Indole derivatives as histone demethylase inhibitors” (Istituto Europeo di Oncologia S.r.l., priority 2017, dated 2021)
Counter-ions that a name gives are not always drawn.

Tests used:
[1] = target: T1, human recombinant KDM1A/CoREST protein (Homo sapiens, UniProt O60341); test: Assay of enzyme inhibition of KDM1A (LSD1), TR-FRET; format: biochemical; conditions: 0.25 nM KDM1A/CoREST, 50 nM H3K4 monomethylated peptide, 20 min at RT; read-out: IC50, KDM1A (LSD1) enzyme inhibition
T1 construct: made in house; host or cells: E. coli
Protocol: 2.1 Assay of Enzyme Inhibition of KDM1A (LSD1)
The KDM1A inhibiting activity was determined using a TR-FRET assay (time resolved fluorescence resonance energy transfer, Lance® Ultra Demethylase technology (Perkin Elmer, Waltham, Mass., USA)), which comprises a Europium chelate donor dye (TRF0404, Perkin Elmer, Waltham, Mass., USA) together with ULight™ (TR0102, Perkin Elmer, Waltham, Mass., USA), a small molecular weight acceptor dye with a red-shifted fluorescent emission, and a biotinylated 21 amino acids histone H3-derived monomethylated peptide (H3K4me) [Lys(Me1)4]-Histone H3 (1-21)-GGK(biotin), (64355, Anaspec, Fremont, Calif., USA) as substrate. The intensity of the light emission is proportional to the level of biotinylated reaction product. The complex of human recombinant KDM1A/CoREST protein was produced in E. coli as separate proteins and co-purified as previously described.(Forneris, F. et al. Trends Biochem, Sci, 2008, 33, 181-189) (Forneris, F. et al. J. Biol. Chem. 2007, 282, 20070-20074).
Demethylase Assay conditions: 0.25 nM KDM1A/CoREST protein and compound in 100% DMSO were added in a final volume of 48 μL assay buffer (Tris HCl 50 mM pH 8.8, NaCl 50 mM, DTT 1 mM, Tween-20 0.01% (by volume)) to each well of a 96 well half area flat bottom white plate (3693 Costar, Sigma-Aldrich, St. Louis, M, USA).
Demethylase reaction was started by the addition of 50 nM histone H3K4 monomethylated. After 20 min at RT, 300 μM tranylcypromine (P8511-1G, Sigma-Aldrich, St. Louis, Mo. 63103) was added to stop the reaction.
Detection step conditions: 10 μL of the assay mixture was transferred from the original plate into a 384 well white plate (6007290 OptiPlate™, Perkin Elmer, Waltham, Mass., USA) and 10 μL of the detection Mix containing 2 nM Eu-antibody and 10 nM U-Light-Streptavidin in 1× Lance Detection Buffer (TRF0404, TR0102, CR97100, Perkin Elmer, Waltham, Mass., USA). The resulting mixture was incubated in the dark for 1 h at RT. Then, TR-FRET signal was read by a fluorimeter (Infinite® F200, Tecan, Männedorf, Switzerland) (Excitation 320 nm, Emission 665 nm and 620 nm, delay time 50 μs, window time 100 μs).
IC50 determination: The inhibitor concentrations ranged from 0.025 to 500 μM (serial 1:3 dilutions). The IC50 was calculated using GraphPad Software.

human leukemia NB4 cells = test: Cell growth, CellTiter-Fluor cell viability assay, NB4; format: cell-based; conditions: NB-4, 48 h incubation, read-out: IC50 against human leukemia NB4 cells
Source text: (§1) CellTiter-Flor® (Promega) is as a nonlytic, single-reagent-addition fluorescence assay that measures the relative number of living cells in a culture population after experimental manipulation. The CellTiter-Fluor™ Cell Viability Assay measures the conserved and constitutive protease activity within live cells and therefore acts as a marker for cell viability.
(§2) Human leukemia MV4-11 cells, (obtained from the Deutsche Sammlung von Mikroorganismen und Zellkulturen, ACC 102) or NB4 cells, (obtained from the Deutsche Sammlung von Mikroorganismen und Zellkulturen) in exponential growth, were incubated for 48 h with different concentrations of the inhibitors. After 48 h a volume of CellTiter-Fluor® Reagent equal to one fifth of volume of cell culture medium was added. The content was mixed and incubates for at least 90 min at 37° C. degree to obtain a stable signal. The fluorescence was recorded using an excitation wavelength of 360 nm and an emission at 535 nm. The IC50 was calculated using GraphPad Software.

[2] = test system: Human leukemia MV4-11 cells; test: Cell growth, CellTiter-Fluor cell viability assay, MV4-11; format: cell-based; conditions: 48 h incubation, read-out: IC50 against human leukemia MV4-11 cells
Source text: as §1, §2

`Cn1c(C(=O)c2cn(CCOc3ccc(OCC4CCNCC4)cc3)c3ccccc23)cc2sccc21` [Compound 19, (4-methylthieno[3,2-b]pyrrol-5-yl)-[1-[2-[4-(4-piperidylmethoxy)phenoxy]ethyl]indol-3-yl]methanone hydrochloride] was tested, and the IC50 [1] was < 0.5 µM, the IC50 (human leukemia NB4 cells) was < 10 µM and the IC50 [2] was < 10 µM.
